Reference: US11471502B2, “Neuroprotective peptide” (UNIVERSITY COLLEGE CARDIFF C[…], priority 2017, dated 2022)

How the values were obtained:
[1] = tested on: ERK signalling in the striatum; assay: Single in vivo injection, IHC/immunofluorescence of nuclear and cytoplasmic ERK markers in striatum; design: species or system mouse; conditions: 1 h
Protocol: a) RB5 peptide selectively promoted activation of ERK2. Acute striatal slices either pre-treated with Scramble (SCR) or RB5 peptide (50 μM) and then stimulated 10 minutes with glutamate (GLU) (100 μM) or vehicle were analysed in Western blot (left panel) and probed with anti phospho ERK antibodies (p44^ERK1 and p42^ERK2) and anti ERK1/2 antibody. GAPDH was used as loading control. […] No changes were detected in the total ERK1 and ERK2 levels. GAPDH was used as loading control. […] Mice injected with a single dose of CPP-SCR or CPP-RB5 peptides (20 mg/kg, i.p.) were rapidly perfused 1 h later and brains were dissected and further analysed for IHC and immunofluorescence. Representative photomicrographs of pERK1/2, pMSK, pAch3, pELK1 and c-Fos expression in the striatum. […] Two-way ANOVA Bonferroni post hoc comparison: one black star, p<0.05, two black stars, p<0.01, one white star, p<0.001. p) Dose response curve of RB5 peptide for ERK activation. 200 μm thick striatal slices were freshly prepared from 2-month old mice and transferred into a perfusion chamber for 1 h at 32° C. Slices were pre-treated with different doses of RB5 or scrambled control. After 1 h, slices for each dose was fixed in PFA 4% for 15 min. 18 μm cryo-sections were processed for immunohistochemistry with anti-phospho p44/p42 MAP kinase. Neuronal quantification was performed with ImageJ software by counting the number of phospho-ERK positive cells in each slice. The level of activation is expressed on the Y-axis as arbitrary units (AU). Doses are reported in a logarithmic scale (Log 10) on the X-axis. The EC50 was calculated using GraphPad Prism software.
At the indicated times after drug treatments, animals were anaesthetised and transcardially perfused with ice-cold buffered 4% PFA. Brains were extracted, post-fixed overnight and transferred to 30% buffered sucrose for 24 h. Coronal sections were cut to a 35 μm thickness on a freezing microtome and stored in a cryoprotective solution at −20° C. until processing for immunohistochemistry or immunofluorescence.
1 h after CPP-RB5/CPP-SCR (20 mg/kg, i.p.) mice were anaesthetized and perfused via intracardiac infusion of ice-cold 4% PFA. Brains were rapidly extracted, post-fixed overnight and transferred to 25% buffered sucrose for 24 h. Coronal sections were cut at 30 μm thickness on a freezing microtome and stored in a cryoprotective solution at −20° C. until they were processed for immunohistochemistry. Free-floating sections were incubated with primary antibodies against anti-phospho-p44/42 MAP kinase (Thr202/Tyr204), anti-phospho-Elk-1 (Ser383), anti-phospho-Kv4.2 (Thr607)-R, anti-phospho-MSK-1, anti-phospho-MEK-1, c-Fos and Tyrosine Hydroxylase overnight at 4° C. Sections were then incubated with biotinylated goat anti-rabbit IgG (1:200, Vector Labs) for 2 h. Detection of the bound antibodies was carried out using a standard peroxidase-based method (ABC-kit, Vectastain, Vector Labs), followed by a DAB and H2O2 solution. Quantification of positive neurons were counted from striatum in 2-3 sections per mouse, bilaterally. Sample areas were visualized under a 20× objective in a Leica DM IRB microscope by a blind investigator to condition and counts per region were averaged across the sections using the ImageJ software.

[2] = tested on: C57BL/6 mice treated with 3-NP; assay: 3-Nitropropionic acid (3-NP) pharmacological mouse model of Huntington's disease; format: in vivo; conditions: 20 mg/kg i.p. twice a day, 3-NP 50 mg/kg once a day, 7 days
Protocol: Importantly, this reduction resembled physiological condition (RB5 3-NP vs RB5 Saline p=0.85). Mean±SEM, n=10 each experimental group).
Before use, CCP-SCR and CPP-RB5 were diluted in PBS 1× and injected twice a day at 12 hr intervals (20 mg/kg). 3-NP was injected 1 h after peptides once a day for 7 consecutive days (50 mg/kg) in male C57B/6 mice. All drugs were administered by intraperitoneal (i.p.) injection in a volume of 10 ml/kg. The mice were euthanized 1 hr after the last peptide injection and transcardially perfused with buffered 4% PFA, and processed for immunohistochemistry. The DeadEnd Colorimetric TUNEL System (Promega) was used to detect apoptotic cells on tissue sections […] thick. For each animal three consecutive coronal sections were taken, mounted on glass slides and processed for immunohistochemical analysis according to the recommended procedures. For quantification, the number of positive neurons in each section was counted across the dorsolateral region of the striatum of both hemispheres and means values were calculated.
We set up a protocol in which male C57BL/6 mice were injected with CPP-SCR or CPP-RB5 peptides (20 mg/kg, i.p.) twice a day (every 12 h) for 7 days and 1 h after peptides injection they received one injection of 3-NP (50 mg/kg). At the end of treatment, animals were perfused and brains were prepared as for immunohistochemistry.

Row | Compound | nuclear ERK-dependent signalling and gene transcription (pMSK, pAcH3, pELK, c-Fos) ([1]; 20 mg/kg i.p.) | striatal ERK phosphorylation (pERK1/2) ([1]; 20 mg/kg i.p.) | cytoplasmic signalling measured by ribosomal S6 phosphorylation ([1]; 20 mg/kg) | phosphorylation of voltage-gated potassium channel (pKv4.2) and MEK-1 ([1]; 20 mg/kg, vs CPP-SCR) | Caspase-3 levels (striatum) [2] | apoptotic levels (TUNEL, striatum) [2] | phosphorylation of the cytoplasmic markers (pMEK-1, pVGK+, pS6) ([1]; 20 mg/kg i.p.)
1 | GRKKRRQRRRPPQGGGGGEPRRTEGVGPGVPGEVEMVKGQPFDV (listed as Homo sapiens) [CPP-RB5] | significantly increased | significantly enhanced | at a lesser extent reduced | comparable between the two treatments | reduce pre-apoptotic levels of Caspase 3 marker to control levels | reducing apoptosis to control levels | –
2 | CSCC[C@H](NC(=O)[C@H](CCC(=O)O)NC(=O)[C@@H](NC(=O)[C@H](CCC(=O)O)NC(=O)CNC(=O)[C@@H]1CCCN1C(=O)[C@@H](NC(=O)CNC(=O)[C@@H]1CCCN1C(=O)CNC(=O)[C@@H](NC(=O)CNC(=O)[C@H](CCC(=O)O)NC(=O)[C@@H](NC(=O)[C@H](CCCNC(=N)N)NC(=O)[C@H](CCCNC(=N)N)NC(=O)[C@@H]1CCCN1C(=O)[C@H](CCC(=O)O)NC(=O)CNC(=O)CNC(=O)CNC(=O)CNC(=O)CNC(=O)[C@H](CCC(N)=O)NC(=O)[C@@H]1CCCN1C(=O)[C@@H]1CCCN1C(=O)[C@H](CCCNC(=N)N)NC(=O)[C@H](CCCNC(=N)N)NC(=O)[C@H](CCCNC(=N)N)NC(=O)[C@H](CCC(N)=O)NC(=O)[C@H](CCCNC(=N)N)NC(=O)[C@H](CCCNC(=N)N)NC(=O)[C@H](CCCCN)NC(=O)[C@H](CCCCN)NC(=O)[C@H](CCCNC(=N)N)NC(=O)CNC(C)=O)[C@@H](C)O)C(C)C)C(C)C)C(C)C)C(=O)N[C@H](C(=O)N[C@@H](CCCCN)C(=O)NCC(=O)N[C@@H](CCC(N)=O)C(=O)N1CCC[C@H]1C(=O)N[C@@H](Cc1ccccc1)C(=O)N[C@@H](CC(=O)O)C(=O)N[C@@H](C(=O)O)C(C)C)C(C)C [RB5] | selective activation | enhanced | – | – | diminished Caspase-3 levels | significant reduction of apoptotic levels | did not influence
